# Assay results published in patent US9920030B2 (priority 2006, dated 2018).
# Like-named read-outs stand apart in the source and are kept apart here.
# Legend:
# Assay type in all cases: in vivo
# [1] = test system: Phytophthora infestans (the causal agent of tomato late blight); assay: whole plant or invertebrate
# [2] = test system: Phytophthora infestans (the causal agent of tomato late blight); assay: whole plant or invertebrate; remark: listed apart in the source
# [3] = test system: Plasmopara vilicola (the causal agent of grape downy mildew); assay: Test A: grape downy mildew, test suspension sprayed on grape seedlings after inoculation, visual disease rating
# In short: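 Curative spray: spores applied first, plants kept 24 h in saturated air at 20 °C and dried before treatment, then 5 days at 20 °C plus 24 h saturated. Suspension: acetone (3% of volume) in 1:1 acetone/water, 250 ppm Trem 014, sprayed to run-off (200 ppm ≈ 500 g/ha); visual 0–100 control rating.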
# [4] = Phytophthora infestans, 96 h, read-out: Percent Disease Control, Test C
# [5] = Phytophthora infestans, 144 h, read-out: Percent Disease Control, Test B
# [6] = Plasmopara, 144 h, * tested at 40 ppm, read-out: Percent Disease Control, Test A
# [7] = compounds without asterisk (application rate not given), 100 = 100% disease control, 0 = no control relative to the controls
Compound,"Percent Disease Control, Test C ([1]; * tested at 40 ppm)","Percent Disease Control, Test B ([2]; * tested at 40 ppm)","Percent Disease Control, Test A ([3]; * tested at 40 ppm)","Percent Disease Control, Test C [1, 7]","Percent Disease Control, Test B [2, 7]","Percent Disease Control, Test A [3, 7]",further results
CCCC1(c2ccccc2)CC(c2csc(C3CCN(C(=O)Cn4nc(C(F)(F)F)cc4C)CC3)n2)=NO1 (stereo not shown) [Compound 101],99%,100%,100%,,,,
"Cc1cc(C(F)(F)F)nn1CC(=O)N1CCC(c2nc(C3=NOC4(CCSc5ccccc54)C3)cs2)CC1 (stereo not shown) [Compound 102, 1-[4-[4-(2,3-dihydrospiro[4H-1-benzothiopyran-4,5′(4′H)-isoxazol]-3′-yl)-2-thiazolyl]-1-piperidinyl]-2-[5-methyl-3-(trifluoromethyl)-1H-pyrazol-1-yl]ethanone]",,,,,,,"pest or weed control at 40 ppm [1, 4]: 99%; pest or weed control at 40 ppm [2, 5]: 100%; pest or weed control at 40 ppm [3, 6]: 100%"
Cc1cc(C(F)(F)F)nn1CC(=O)N1CCC(c2nc(C3=NOC(c4ccccc4)(C4CC4)C3)cs2)CC1 (stereo not shown) [Compound 103],99%,100%,100%,,,,
Cc1cc(C(F)(F)F)nn1CC(=O)N1CCC(c2nc(C3=NOC4(CCC(c5ccccc5)CC4)C3)cs2)CC1 (stereo not shown) [Compound 104],,,,99%,100%,100%,
CCC1(c2ccccc2)CC(c2csc(C3CCN(C(=O)Cn4nc(C(F)(F)F)cc4C)CC3)n2)=NO1 (stereo not shown) [Compound 105],99%,100%,100%,,,,
Cc1cc(C(F)(F)F)nn1CC(=O)N1CCC(c2nc(C3=NOC(c4ccc(-c5ccccc5)cc4)C3)cs2)CC1 (stereo not shown) [Compound 106],24%,85%,80%,,,,
"O=C(Cn1nc(C(F)(F)F)cc1Cl)N1CCC(c2nc(C3=NOC(c4ccccc4)C3)cs2)CC1 (stereo not shown) [Compound 107, 2-[5-chloro-3-(trifluoromethyl)-1H-pyrazol-1-yl]-1-[4-[4-(4,5-dihydro-5-phenyl-3-isoxazolyl)-2-thiazolyl]-1-piperidinyl]ethanone]",,,,,,,"pest or weed control at 40 ppm [1, 4]: 99%; pest or weed control at 40 ppm [2, 5]: 100%; pest or weed control at 40 ppm [3, 6]: 100%"
Cc1cc(C(F)(F)F)nn1CC(=O)N1CCC(c2nc(C3=NC(c4ccccc4)C(c4ccccc4)N3)cs2)CC1 (stereo not shown) [Compound 108],,,,0%,58%,0%,
Cc1cc(C(F)(F)F)nn1CC(=O)N1CCC(c2nc(C3=NOC4(CCCc5sccc54)C3)cs2)CC1 (stereo not shown) [Compound 109],98%,100%,100%,,,,
Cc1cc(C(F)(F)F)nn1CC(=O)N1CCC(c2nc(C3=NOC(c4ccc(O)cc4)C3)cs2)CC1 (stereo not shown) [Compound 110],99%,100%,97%,,,,
Cc1cc(C(F)(F)F)nn1CC(=O)N1CCC(c2nc(C3=NOC(c4cnccn4)C3)cs2)CC1 (stereo not shown) [Compound 111],97%,100%,97%,,,,
Cc1cc(C(F)(F)F)nn1CC(=O)N1CCC(c2nc(C3=NOC(CN4Cc5cccc(Cl)c5S4(=O)=O)C3)cs2)CC1 (stereo not shown) [Compound 112],68%,100%,76%,,,,
CC(=O)Oc1ccc(C2CC(c3csc(C4CCN(C(=O)Cn5nc(C(F)(F)F)cc5C)CC4)n3)=NO2)cc1 (stereo not shown) [Compound 113],99%,100%,99%,,,,
Cc1cc(C(F)(F)F)nn1CC(=O)N1CCC(c2nc(C3=NOC(c4ccccc4C(F)(F)F)C3)cs2)CC1 (stereo not shown) [Compound 114],99%,100%,100%,,,,
Cc1cc(C(F)(F)F)nn1CC(=O)N1CCC(c2nc(C3=NOC(c4cccc(C(F)(F)F)c4)C3)cs2)CC1 (stereo not shown) [Compound 115],99%,100%,100%,,,,
COC(=O)CC1CC(c2csc(C3CCN(C(=O)Cn4nc(C(F)(F)F)cc4C)CC3)n2)=NO1 (stereo not shown) [Compound 116],,,,79%,100%,46%,
Cc1cc(C(F)(F)F)nn1CC(=O)N1CCC(c2nc(C3=NOC(S(=O)(=O)c4ccccc4)C3)cs2)CC1 (stereo not shown) [Compound 117],99%,100%,93%,,,,

Compound,"Percent Disease Control, Test C ([1]; * tested at 40 ppm)","Percent Disease Control, Test B ([2]; * tested at 40 ppm)","Percent Disease Control, Test A ([3]; * tested at 40 ppm)","Percent Disease Control, Test C [1, 7]","Percent Disease Control, Test B [2, 7]","Percent Disease Control, Test A [3, 7]",further results
Cc1cc(C(F)(F)F)nn1CC(=O)N1CCC(c2nc(C3=NC[C@@H](c4ccccc4)N3C)cs2)CC1 [Compound 118],16%,87%,0%,,,,
Cc1cc(C(F)(F)F)nn1CC(=O)N1CCC(c2nc(C3=N[C@@H](c4ccccc4)[C@@H](c4ccccc4)N3)cs2)CC1 [Compound 119],,,,0%,82%,0%,
Cc1cc(C(F)(F)F)nn1CC(=O)N1CCC(c2nc(-c3ccc(Cl)cc3)cs2)CC1 [Compound 120],,,,0%,88%,99%,
Cc1cc(C(F)(F)F)nn1CC(=O)N1CCC(c2nc(-c3ccccc3Cl)cs2)CC1 [Compound 121],,,,0%,47%,83%,
Cc1cc(C(F)(F)F)nn1CC(=O)N1CCC(c2nc(-c3ccc(C(F)(F)F)cc3)cs2)CC1 [Compound 122],,,,0%,46%,99%,
Cc1cc(C(F)(F)F)nn1CC(=O)N1CCC(c2nc(-c3cccc(Cl)c3)cs2)CC1 [Compound 123],,,,0%,68%,95%,
Cc1cc(C(F)(F)F)nn1CC(=O)N1CCC(c2nc(-c3cccnc3)cs2)CC1 [Compound 124],,,,26%,98%,8%,
Cc1cc(C(F)(F)F)nn1CC(=O)N1CCC(c2nc(C3=NOC(c4ccc(O)c(O)c4)C3)cs2)CC1 (stereo not shown) [Compound 125],,,,0%,53%,31%,
"O=C(Cn1nc(C(F)(F)F)cc1Br)N1CCC(c2nc(C3=NOC(c4ccccc4)C3)cs2)CC1 (stereo not shown) [Compound 126, 2-[5-bromo-3-(trifluoromethyl)-1H-pyrazol-1-yl]-1-[4-[4-(4,5-dihydro-5-phenyl-3-isoxazoly)-2-thiazolyl]-1-piperidinyl]ethanone]",,,,99%,100%,100%,"Percent Disease Control, Test A ([3]; compounds without asterisk (application rate not given), 100 = 100% disease control, 0 = no control relative to the controls, listed as 11): 99%"
"Cc1cc(C(F)(F)F)n(CC(=O)N2CCC(c3nc(C4=NOC(c5ccccc5)C4)cs3)CC2)n1 (stereo not shown) [Compound 128, 1-[4-[4-(4,5-dihydro-5-phenyl-3-isoxazolyl)-2-thiazolyl]-1-piperidinyl]-2-[3-methyl-5-(trifluoromethyl)-1H-pyrazol-1-yl]ethanone]",,,,,,,"pest or weed control at 40 ppm [1, 4]: 99%; pest or weed control at 40 ppm [2, 5]: 100%; pest or weed control at 40 ppm [3, 6]: 100%"
"Cc1cc(C(F)(F)F)nn1CC(=S)N1CCC(c2nc(C3=NOC(c4ccccc4)C3)cs2)CC1 (stereo not shown) [Compound 130, 1-[4-[4-(4,5-dihydro-5-phenyl-3-isoxazolyl)-2-thiazolyl]-1-piperidinyl]-2-[5-methyl-3-(trifluoromethyl)-1H-pyrazol-1-yl]ethanethione]",,,,,,,"pest or weed control at 10 µg/mL [1, 4]: 99%; pest or weed control at 10 µg/mL [2, 5]: 100%; pest or weed control at 10 µg/mL ([3]; Plasmopara, 144 h, ** tested at l0 ppm, read-out: Percent Disease Control, Test A): 100%"
COc1ccccc1C1CC(c2csc(C3CCN(C(=O)Cn4nc(C(F)(F)F)cc4C)CC3)n2)=NO1 (stereo not shown) [Compound 131],99%,100%,100%,,,,
Cc1cc(C(F)(F)F)nn1CC(=O)N1CCC(c2nc(C3=NOC(C)(c4cc(Cl)sc4Cl)C3)cs2)CC1 (stereo not shown) [Compound 132],91%,100%,85%,,,,
Cc1ccc(C)c(C2CC(c3csc(C4CCN(C(=O)Cn5nc(C(F)(F)F)cc5C)CC4)n3)=NO2)c1 (stereo not shown) [Compound 133],99%,100%,100%,,,,
COC(=O)c1ccc(C2CC(c3csc(C4CCN(C(=O)Cn5nc(C(F)(F)F)cc5C)CC4)n3)=NO2)cc1 (stereo not shown) [Compound 134],66%,100%,90%,,,,
Cc1ccc(C2CC(c3csc(C4CCN(C(=O)Cn5nc(C(F)(F)F)cc5C)CC4)n3)=NO2)c(C)c1 (stereo not shown) [Compound 136],99%,100%,99%,,,,
"Cc1cc(C(F)(F)F)nn1CC(=O)N1CCC(c2nc(C3=NOC4(CCOc5ccccc54)C3)cs2)CC1 (stereo not shown) [Compound 137, 1-[4-[4-(2,3-dihydrospiro[4H-1-benzopyran-4,5′(4′H)-isoxazol]-3′-yl)-2-thiazolyl]-1-piperidinyl]-2-[5-methyl-3-(trifluoromethyl)-1H-pyrazol-1-yl]ethanone]",,,,,,,"pest or weed control at 40 ppm [1, 4]: 99%; pest or weed control at 40 ppm [2, 5]: 100%; pest or weed control at 40 ppm [3, 6]: 100%"
